Experimental data taken from paper PMC10882719 (Frontiers in Neuroscience, 2024).
Read-outs that look alike come from different tables or passages of the source.

Legend:
Assay type in all cases: cell-based
[1] = molecular target: T1, 168 GPCRs (Homo sapiens, UniProt Q92847); conditions: GHSR
T1 construct: host or cells: PathHunter cell lines

[2] = molecular target: T2, 168 GPCRs (Homo sapiens, UniProt P25025)
T2 construct: host or cells: PathHunter cell lines
T2 sequence (P25025 1-360): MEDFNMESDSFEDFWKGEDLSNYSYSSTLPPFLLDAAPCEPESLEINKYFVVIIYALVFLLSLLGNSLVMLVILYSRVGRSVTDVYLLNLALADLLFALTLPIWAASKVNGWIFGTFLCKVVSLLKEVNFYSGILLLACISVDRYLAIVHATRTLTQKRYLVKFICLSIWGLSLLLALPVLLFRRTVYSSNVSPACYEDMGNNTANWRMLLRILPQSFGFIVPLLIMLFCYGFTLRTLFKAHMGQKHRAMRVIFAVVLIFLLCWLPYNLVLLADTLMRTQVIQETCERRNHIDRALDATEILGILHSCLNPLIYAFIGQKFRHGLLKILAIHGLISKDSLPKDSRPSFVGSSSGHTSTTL

[3] = molecular target: T3, 168 GPCRs (Homo sapiens, UniProt P24530); conditions: EDNRB
T3 construct: host or cells: PathHunter cell lines
T3 sequence (P24530 27-442): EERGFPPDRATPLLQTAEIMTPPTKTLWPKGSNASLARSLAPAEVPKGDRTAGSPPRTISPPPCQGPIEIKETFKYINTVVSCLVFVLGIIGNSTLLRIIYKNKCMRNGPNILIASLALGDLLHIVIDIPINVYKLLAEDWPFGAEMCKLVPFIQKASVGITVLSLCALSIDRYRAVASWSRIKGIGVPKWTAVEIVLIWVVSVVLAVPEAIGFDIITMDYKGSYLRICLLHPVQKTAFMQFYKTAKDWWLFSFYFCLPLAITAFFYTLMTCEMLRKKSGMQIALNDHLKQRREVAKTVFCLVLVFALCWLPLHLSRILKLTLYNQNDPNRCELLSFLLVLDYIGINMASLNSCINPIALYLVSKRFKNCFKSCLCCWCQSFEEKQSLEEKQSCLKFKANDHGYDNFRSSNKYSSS

[4] = molecular target: T4, 168 GPCRs (Homo sapiens, UniProt Q9UKP6); conditions: UTR2
T4 construct: host or cells: PathHunter cell lines
T4 sequence (Q9UKP6 1-389): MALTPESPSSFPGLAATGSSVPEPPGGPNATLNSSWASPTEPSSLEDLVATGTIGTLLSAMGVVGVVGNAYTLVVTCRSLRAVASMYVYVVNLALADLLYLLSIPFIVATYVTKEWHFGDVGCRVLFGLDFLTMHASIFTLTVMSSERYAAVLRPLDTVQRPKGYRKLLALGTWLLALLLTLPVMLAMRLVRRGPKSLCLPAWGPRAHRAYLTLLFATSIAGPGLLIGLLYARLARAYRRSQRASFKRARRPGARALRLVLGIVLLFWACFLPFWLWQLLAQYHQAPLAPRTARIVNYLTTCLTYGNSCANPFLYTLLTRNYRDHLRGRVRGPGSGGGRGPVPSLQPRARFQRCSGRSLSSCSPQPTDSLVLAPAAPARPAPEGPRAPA

[5] = molecular target: T5, 168 GPCRs (Homo sapiens, UniProt P21731); conditions: TBXA2R
T5 construct: host or cells: PathHunter cell lines
T5 sequence (P21731 1-343): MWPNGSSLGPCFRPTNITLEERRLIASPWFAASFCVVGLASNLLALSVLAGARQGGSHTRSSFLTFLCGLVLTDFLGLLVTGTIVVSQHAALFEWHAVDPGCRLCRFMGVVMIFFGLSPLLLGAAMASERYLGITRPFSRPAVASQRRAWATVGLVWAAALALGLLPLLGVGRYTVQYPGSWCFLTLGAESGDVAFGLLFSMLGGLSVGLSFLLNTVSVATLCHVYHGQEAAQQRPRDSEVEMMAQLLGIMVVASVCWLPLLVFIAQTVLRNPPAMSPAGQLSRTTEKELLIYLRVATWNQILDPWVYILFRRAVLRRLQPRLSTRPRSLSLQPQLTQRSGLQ

[6] = molecular target: T6, 168 GPCRs (Homo sapiens, UniProt P46663)
T6 construct: host or cells: PathHunter cell lines
T6 sequence (P46663 1-353): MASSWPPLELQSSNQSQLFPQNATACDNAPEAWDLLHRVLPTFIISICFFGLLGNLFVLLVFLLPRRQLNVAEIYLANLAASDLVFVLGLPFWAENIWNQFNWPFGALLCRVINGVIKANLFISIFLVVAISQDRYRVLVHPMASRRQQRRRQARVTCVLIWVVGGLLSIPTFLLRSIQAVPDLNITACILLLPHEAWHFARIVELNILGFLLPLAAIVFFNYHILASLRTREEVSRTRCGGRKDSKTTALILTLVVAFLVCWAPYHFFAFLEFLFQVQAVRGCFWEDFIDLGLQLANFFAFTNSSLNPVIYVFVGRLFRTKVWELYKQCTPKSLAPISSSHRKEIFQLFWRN

T1 sequence (Q92847 whole entry): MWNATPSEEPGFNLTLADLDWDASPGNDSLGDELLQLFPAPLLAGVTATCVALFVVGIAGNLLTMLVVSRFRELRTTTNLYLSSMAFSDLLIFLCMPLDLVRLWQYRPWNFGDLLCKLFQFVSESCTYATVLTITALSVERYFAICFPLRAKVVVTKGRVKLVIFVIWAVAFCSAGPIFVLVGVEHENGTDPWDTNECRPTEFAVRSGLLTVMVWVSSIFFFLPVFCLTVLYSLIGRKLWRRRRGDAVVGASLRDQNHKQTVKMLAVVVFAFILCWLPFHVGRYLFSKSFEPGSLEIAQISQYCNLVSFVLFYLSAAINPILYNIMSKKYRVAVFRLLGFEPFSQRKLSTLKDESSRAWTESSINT

| Structure (SMILES) | % Agonist Activity ([1]; 1 uM) [%] | % Antagonist Activity ([1]; 1 uM) [%] | % Agonist Activity ([1]; 10 uM) [%] | % Antagonist Activity ([1]; 10 uM) [%] | % Agonist Activity ([2]; CXCR2, 1 uM) [%] | % Antagonist Activity ([2]; CXCR2, 1 uM) [%] | % Agonist Activity ([2]; CXCR2, 10 uM) [%] | % Antagonist Activity ([2]; CXCR2, 10 uM) [%] | % Agonist Activity ([3]; 1 uM) [%] | % Antagonist Activity ([3]; 1 uM) [%] | % Agonist Activity ([3]; 10 uM) [%] | % Antagonist Activity ([3]; 10 uM) [%] | % Agonist Activity ([4]; Conc 1 uM) [%] | % Antagonist Activity ([4]; Conc 1 uM) [%] | % Agonist Activity ([4]; Conc 10 uM) [%] | % Antagonist Activity ([4]; Conc 10 uM) [%] | % Agonist Activity ([5]; Conc 1 uM) [%] | % Antagonist Activity ([5]; Conc 1 uM) [%] | % Agonist Activity ([5]; Conc 10 uM) [%] | % Antagonist Activity ([5]; Conc 10 uM) [%] | other results |
| --- | --- | --- | --- | --- | --- | --- | --- | --- | --- | --- | --- | --- | --- | --- | --- | --- | --- | --- | --- | --- | --- |
| CNC(C)C(=O)c1ccc2c(c1)OCO2 (stereo not drawn) [methylone] | -6.6 | 25.8 | -7.2 | 9.1 | -0.2 | -7.6 | -2.6 | -1 | 0.7 | 17.5 | -0.1 | 10.9 | 0.6 | -2.1 | 0 | 4.2 | -1.1 | -5.5 | -2.9 | -19.7 | % Agonist Activity ([6]; BDKRB1, 1 uM): -1.7%; % Antagonist Activity ([6]; BDKRB1, 1 uM): 2.8%; % Agonist Activity ([6]; BDKRB1, 10 uM): -2.5%; % Antagonist Activity ([6]; BDKRB1, 10 uM): 12.1% |
| CNC(C)Cc1ccc2c(c1)OCO2 (stereo not drawn) [MDMA, 3,4-Methylenedioxy methamphetamine, reference compound] | 3 | -30.8 | 3.1 | -7 | -0.9 | 12.8 | 2.2 | 14.6 | 0 | 2.5 | -0.3 | 6.4 | -1.1 | 4.4 | -0.1 | 14.3 | 2.8 | 9.4 | 1.6 | 14.2 | % Agonist Activity ([6]; BDKRB1, 1 uM): -1.2%; % Antagonist Activity ([6]; BDKRB1, 1 uM): -17.1%; % Agonist Activity ([6]; BDKRB1, 10 uM): -0.2%; % Antagonist Activity ([6]; BDKRB1, 10 uM): -12.7% |
